Tests used:
[1] = biological target: lactate dehydrogenase B (LDHB) (Homo sapiens, UniProt P07195); assay: NADH fluorometric LDH assay; format: biochemical
[2] = biological target: T1, lactate dehydrogenase A (LDHA) (Homo sapiens, UniProt P00338); assay: NADH fluorometric LDH assay; format: biochemical
[3] = biological target: T1, lactate dehydrogenase A (LDHA); assay: biochemical
CASTOR1 = biological target: T2, CASTOR1 (Homo sapiens, UniProt Q8WTX7); assay: equilibrium dialysis MS; format: binding; conditions: 150 mM ammonium acetate pH 7.4, 4 C, metabolite pool
T2 sequence (Q8WTX7 1-329): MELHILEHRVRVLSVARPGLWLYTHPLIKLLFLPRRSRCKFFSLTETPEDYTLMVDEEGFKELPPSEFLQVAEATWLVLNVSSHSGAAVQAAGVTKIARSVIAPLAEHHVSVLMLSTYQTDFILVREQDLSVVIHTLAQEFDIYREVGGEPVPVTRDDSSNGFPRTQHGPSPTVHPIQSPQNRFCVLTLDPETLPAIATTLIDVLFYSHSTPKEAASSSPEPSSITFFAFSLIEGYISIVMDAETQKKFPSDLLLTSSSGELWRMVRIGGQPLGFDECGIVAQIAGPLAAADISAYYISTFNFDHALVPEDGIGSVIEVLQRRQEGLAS

Sequence of lactate dehydrogenase B (LDHB) (P07195 2-334): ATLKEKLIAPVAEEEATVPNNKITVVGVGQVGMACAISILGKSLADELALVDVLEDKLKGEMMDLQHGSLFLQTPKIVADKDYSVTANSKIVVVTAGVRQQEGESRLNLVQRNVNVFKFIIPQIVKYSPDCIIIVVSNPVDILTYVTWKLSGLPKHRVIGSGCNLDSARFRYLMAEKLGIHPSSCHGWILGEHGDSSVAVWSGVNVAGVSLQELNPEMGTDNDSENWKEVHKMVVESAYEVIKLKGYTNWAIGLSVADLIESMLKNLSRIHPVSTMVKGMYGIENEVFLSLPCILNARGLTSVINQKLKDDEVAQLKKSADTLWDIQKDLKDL

IC50 [1] [µM] | IC50 [2] [µM] | IC50 [3] [µM] | equilibrium dialysis MS (MIDAS) (CASTOR1) | SMILES
14900 | 5060 | – | – | Nc1ncnc2c1ncn2[C@@H]1O[C@H](COP(=O)(O)OP(=O)(O)O)[C@@H](O)[C@H]1O [ADP]
51400 | 24400 | – | – | Nc1ncnc2c1ncn2[C@@H]1O[C@H](COP(=O)(O)O)[C@@H](O)[C@H]1O [AMP]
> 100 | – | – | – | CC(=O)SCCNC(=O)CCNC(=O)[C@H](O)C(C)(C)COP(=O)(O)OP(=O)(O)OC[C@H]1O[C@@H](n2cnc3c(N)ncnc32)[C@H](O)[C@@H]1OP(=O)(O)O [C2:0-CoA]
> 100 | – | – | – | CCCC(=O)SCCNC(=O)CCNC(=O)[C@H](O)C(C)(C)COP(=O)(O)OP(=O)(O)OC[C@H]1O[C@@H](n2cnc3c(N)ncnc32)[C@H](O)[C@@H]1OP(=O)(O)O [C4:0-CoA]
> 100 | – | – | – | CCCCCCCC(=O)SCCNC(=O)CCNC(=O)[C@H](O)C(C)(C)COP(=O)(O)OP(=O)(O)OC[C@H]1O[C@@H](n2cnc3c(N)ncnc32)[C@H](O)[C@@H]1OP(=O)(O)O [C8:0-CoA]
> 100 | > 100 | – | – | CCCCCCCCCCCC(=O)SCCNC(=O)CCNC(=O)[C@H](O)C(C)(C)COP(=O)(O)OP(=O)(O)OC[C@H]1O[C@@H](n2cnc3c(N)ncnc32)[C@H](O)[C@@H]1OP(=O)(O)O [C12:0-CoA]
> 100 | ~1 | 1.54 | – | CCCCCCCCCCCCCCCC(=O)SCCNC(=O)CCNC(=O)[C@H](O)C(C)(C)COP(=O)(O)OP(=O)(O)OC[C@H]1O[C@@H](n2cnc3c(N)ncnc32)[C@H](O)[C@@H]1OP(=O)(O)O [C16:0-CoA]
> 100 | ~1 | 0.8 | – | CCCCCCCC/C=C\CCCCCCCC(=O)SCCNC(=O)CCNC(=O)[C@H](O)C(C)(C)COP(=O)(O)OP(=O)(O)OC[C@H]1O[C@@H](n2cnc3c(N)ncnc32)[C@H](O)[C@@H]1OP(=O)(O)O [C18:1-CoA]
> 100 | – | 1.01 | – | CCCCCCCCCCCCCCCCCCCC(=O)SCCNC(=O)CCNC(=O)[C@H](O)C(C)(C)COP(=O)(O)OP(=O)(O)OC[C@H]1O[C@@H](n2cnc3c(N)ncnc32)[C@H](O)[C@@H]1OP(=O)(O)O [C20:0-CoA]
– | – | – | CASTOR1 enriched arginine (Fig. 1C) | N=C(N)NCCC[C@H](N)C(=O)O [arginine]

Source: publication doi:10.1101/2021.08.28.458030v1 (biorxiv, 2021)
